Source: patent US20240277829A1, “HIV-1 VACCINATION AND SAMT-247 MICROBICIDE TO PREVENT HIV-1 INFECTION” (priority 2021, published 2024)
“Also recorded” adds a separate entry of the source.

System: mucosal Th1 and Th2 cells
Assay: Frequencies and cytokine levels of macaque rectal mucosal T cells following SAMT-247 and PMA stimulation
Type: cell-based
Excerpt: Additionally, rectal tissue from 9 macaques was used for an in vitro study. The age-matched macaques from this separate study (P204) included 4 animals vaccinated against HIV and 5 naïve animals, all challenged with SHIV. Rectal tissue was obtained post challenge from 7 infected and 2 uninfected animals for the P204 study analysis. Extra cells were available from that collection and were used here for the in vitro study.
Frequencies and cytokine levels of macaque rectal mucosal NK cells and T cells following SAMT-247 and PMA stimulation. NK/ILC and T cell frequencies and cytokine levels were measured in macaque rectal mucosa. Freshly collected rectal biopsies were processed to single cells and cultured in R10 in the presence/or absence of SAMT-247 and/or PMA for 12 hours. Subsequently, cells were stained for live cells with Live/Dead Blue dye (cat. #L34962, 0.5 μl) from Thermofisher; followed by surface staining with the following: BUV737 anti-CD3 (SP34-2; cat. #741872, 5 μl), BV711 anti-CD4 (L200; cat. #563913, 5 μl), BV650 anti-NKp44 (P44-8; cat. #744302, 5 μl), Alexa700 anti-CD20 (2H7; cat. #560631, 5 μl), BV786 anti-CD45 (D058-1283; cat. #563861, 5 μl) from BD Biosciences; APC-H7 anti-CD11b (ICRF44; cat. #47-0118-42, 5 μl), PE-Cy5 anti-CD95 (ICRF44; cat. #15-0959-42, 5 μl) from eBioscience; BV570 anti-CD8 (RPA-T8; cat. #301038, 5 μl), BV605 anti-CCR6 (G034E3; cat. #353420, 5 μl), APC anti-CXCR3 (G025H7; cat. #353708, 5 μl), from Biolegend and PE-Cy7 anti-NKG2A (Z199; cat. #B10246, 5 μl) from Beckman coulter for 30 minutes at room temperature. This was followed by permeabilization with a FOX3-transcription buffer set (cat. #00-5523-00) from eBioscience according to the manufacture's recommendation and subsequently intracellular staining with the following: BV750 anti-TNF-α (MAB11; cat. #566359, 5 μl), BUV395 anti-IFN-γ (B27; cat. #563563, 5 μl), BV510 anti-GranB (GB11; cat. #563388, 5 μl), BV421 anti-IL-10 (JES3-9D7; cat. #564053, 5 μl) from BD Biosciences; PE-Cy5.5 anti-IL-17 (BL168; cat. #512314, 5 μl) from Biolegend; and FITC anti-Perforin (pf-344; cat. #3465-7, 5 μl) from MABTECH for 30 minutes at room temperature. Flow cytometry acquisitions were performed on a FACSymphony A5 and examined using FACSDiva software (BD Biosciences).

CCCCCCCCCCCCCC(=O)O[C@@H]1[C@@H](C)[C@@]2(O)[C@@H](C=C(CO)C[C@]3(O)C(=O)C(C)=C[C@@H]23)[C@@H]2C(C)(C)[C@]12OC(C)=O [PMA]
overall mucosal Th1 and Th2 cell frequencies (PMA stimulation): did not change
Cytokines, Unstim vs PMA Stimulation (mucosal Th1): >TNF-α; also recorded: >IL-10; also recorded: >IFN-γ
Cytokines, Unstim vs PMA Stimulation (mucosal Th2): >IFN-γ; also recorded: >TNF-α; also recorded: >IL-10
